{
  "source": "patent US12104169B2",
  "about": "“Chemical reprogramming to generate neuronal cells” (The J. David Gladstone Institutes, a testamentary trust …, priority 2015, dated 2024)",
  "key": {"tdMEFs": {"test_system": "tdMEFs", "assay": "Combinatorial chemical screening for neural reprogramming of tdMEFs (Sox2/Nestin co-expression)", "type": "cell-based, mouse", "conditions": "for generation of Sox2/Nestin double-positive cells: added to the six-molecule condition; for Sox2/Nestin double-positive cells: primary screening, single molecule added to basal condition (LDN, A83, CHIR, bFGF), ten days post-treatment", "procedure": "(§1) Cells were washed once with 1×PBS and fixed with 4% paraformaldehyde at room temperature for 10 minutes, followed by permeabilization with 0.2% Triton X-100 in 1×PBS for 10 min, and blocking with 7.5% BSA for at least 1 hour. All primary antibodies were diluted in 1×PBS with 7.5% BSA, and the incubation was performed at 4° C. overnight. The cells were washed with 1×PBS five times for 10 min each at room temperature. The secondary antibodies, labeled with Alexa-488, Alexa-555, and Alexa-647, were purchased from Invitrogen, and were diluted into 1×PBS with 7.5% BSA. Incubation with the secondary antibodies was for 1 hour at room temperature, followed by five 10-minute washes with 1×PBS. The nuclei were stained with DAPI. Living cell staining was used for cell-surface marker O4, as described by Najm et al. (Nat. Biotechnol. 31: 426-433 (2013)). Antibodies used in this study are listed below in Table 1.\nBriefly, tdMEFs were plated into neural reprogramming basal medium at 15,000 cells per well in 24-well plate, and after an overnight culture, individual small molecules from a focused chemical collection, including epigenetic modifiers, metabolism regulators, and signaling modulators, were added. Ten days post-treatment, cells were fixed, immune-stained, and analyzed for co-expression of Sox2 and Nestin, two typical NSC markers (FIG. 1A-1B)."}, "Hedgehog (Hh) signaling": {"test_system": "Hedgehog (Hh) signaling", "conditions": "read-out: EC50 activation of Hedgehog (Hh) signaling; cited from earlier work"}, "SAPK2/p38": {"biological_target": "SAPK2/p38 (Homo sapiens, UniProt Q16539)", "sequence (Q16539 whole entry)": "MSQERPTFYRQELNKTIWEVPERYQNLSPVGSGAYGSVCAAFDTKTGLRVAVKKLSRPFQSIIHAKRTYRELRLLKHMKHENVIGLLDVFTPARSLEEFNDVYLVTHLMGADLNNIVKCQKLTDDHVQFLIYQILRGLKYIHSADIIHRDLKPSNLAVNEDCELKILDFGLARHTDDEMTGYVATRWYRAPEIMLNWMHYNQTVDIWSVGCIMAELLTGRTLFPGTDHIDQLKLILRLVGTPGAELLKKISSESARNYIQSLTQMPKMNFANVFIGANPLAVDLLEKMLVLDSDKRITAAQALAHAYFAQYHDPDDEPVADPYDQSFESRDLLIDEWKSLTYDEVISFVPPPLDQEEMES", "conditions": "CK1 and ALK5 inhibitor versus SAPK2/p38; cited from earlier work"}, "tdMEF [1]": {"test_system": "tdMEF", "assay": "M9 chemical conversion of tdMEFs to ciNSLCs (Sox2/Nestin immunostaining)", "type": "cell-based, mouse", "conditions": "FIG. 2G", "procedure": "To convert the fibroblasts into ciNSLCs, MEFs were seeded into Matrigel (Corning, 1:40 dilution)-coated 24-well plates at 15,000 per well, or 1-1.5 million in 15-cm dishes in MEF medium (Dulbecco's modified Eagle's medium supplemented with 10% FBS, 0.1 mM nonessential amino acids, and 2 mM Glutamax) for the first 24 hours. […] M9 medium was refreshed every other day. After a 10-day induction, cells were cultured in neural stem cells medium (NSC medium). Afterwards, the cells could be repeatedly propagated in NSC medium.\nas §1, with “Antibodies used in this study are listed below in Table 1.” left out"}, "tdMEF [2]": {"test_system": "tdMEF", "assay": "Inhibitor assay: pathway inhibitors added to M9 reprogramming", "type": "cell-based, mouse", "conditions": "Sox2+/Nestin+ cells at day 10", "procedure": "When performing the reprogramming, small molecule inhibitors, including 0.5 μM PD0325901, 10 μM SP 600125, 5 μM SB203580, 5 μM LY294002, or 2 μM LDE 225, was added in the freshly made M9 culture medium. DMSO was used in basal medium as control. The medium was changed every 2 days, and the Sox2+/Nestin+ cells were analyzed by immunostaining by day 10 after treatment."}, "[3]": {"biological_target": "Smoothened (Smo) receptor (Homo sapiens, UniProt Q99835)", "sequence (Q99835 28-787)": "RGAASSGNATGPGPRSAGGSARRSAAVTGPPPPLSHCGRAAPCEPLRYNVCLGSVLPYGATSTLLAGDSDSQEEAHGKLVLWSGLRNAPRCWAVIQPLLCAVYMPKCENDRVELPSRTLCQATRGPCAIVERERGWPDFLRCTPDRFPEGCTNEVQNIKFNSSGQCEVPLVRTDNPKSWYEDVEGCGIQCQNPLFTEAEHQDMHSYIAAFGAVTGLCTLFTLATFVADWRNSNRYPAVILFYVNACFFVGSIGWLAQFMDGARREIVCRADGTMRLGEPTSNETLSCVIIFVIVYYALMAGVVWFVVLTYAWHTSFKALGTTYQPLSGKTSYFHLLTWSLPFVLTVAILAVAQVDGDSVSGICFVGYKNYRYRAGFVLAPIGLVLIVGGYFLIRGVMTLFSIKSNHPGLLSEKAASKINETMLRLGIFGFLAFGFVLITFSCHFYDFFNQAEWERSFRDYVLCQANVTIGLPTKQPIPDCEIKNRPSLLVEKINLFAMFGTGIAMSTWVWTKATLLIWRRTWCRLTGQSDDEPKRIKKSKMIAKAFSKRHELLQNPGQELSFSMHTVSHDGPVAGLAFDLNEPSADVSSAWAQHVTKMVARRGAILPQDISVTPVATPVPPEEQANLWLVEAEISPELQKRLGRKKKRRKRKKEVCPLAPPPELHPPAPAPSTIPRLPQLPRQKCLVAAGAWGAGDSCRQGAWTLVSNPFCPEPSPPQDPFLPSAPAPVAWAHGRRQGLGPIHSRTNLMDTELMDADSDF", "conditions": "cited from earlier work"}, "[4]": {"test_system": "Hedgehog signaling pathway in Shh-light 2 cells", "conditions": "read-out: EC50 activation of Hedgehog signaling pathway; cited from earlier work"}, "[5]": {"test_system": "A53T alpha-synuclein clearance in PC-12 cells", "conditions": "independent of rapamycin treatment; cited from earlier work"}, "ciNSLC-derived neurons": {"test_system": "ciNSLC-derived neurons", "type": "cell-based, mouse"}},
  "note": "Where a name gives a salt, the structure may show the parent alone.",
  "data": [
    {"compound": "N[C@@H]1C[C@H]1c1ccccc1", "note": "(racemic) [Parnate, tranylcypromine sulfate]", "values": [
      {"measurement": "generation of Sox2/Nestin double-positive cells", "setting": "tdMEFs", "value": "further enhanced"}
    ]},
    {"compound": "O=C(O)[C@@H](Cc1c[nH]c2ccccc12)N1C(=O)c2ccccc2C1=O", "note": "(stereo in doubt) [RG108, N-Phthalyl-L-tryptophan]", "values": [
      {"measurement": "generation of Sox2/Nestin double-positive cells", "setting": "tdMEFs", "value": "further enhanced"}
    ]},
    {"compound": "CC(C)CCC[C@](C)(O)[C@H]1CC[C@H]2[C@@H]3CC=C4C[C@@H](O)CC[C@]4(C)[C@H]3CC[C@@]21C", "note": "[(3β)-Cholest-5-ene-3,20-diol]", "values": [
      {"measurement": "EC50", "setting": "Hedgehog (Hh) signaling", "value": "~3000", "unit": "nM"}
    ]},
    {"compound": "NC(=O)c1ccc(-c2nc(-c3ccc4c(c3)OCCO4)c(-c3ccccn3)[nH]2)cc1", "note": "[D 4476, 4-[4-(2,3-Dihydro-1,4-benzodioxin-6-yl)-5-(2-pyridinyl)-1H-imidazol-2-yl]benzamide]", "values": [
      {"measurement": "selectivity over SAPK2/p38", "setting": "SAPK2/p38", "value": "greater than 20 fold"}
    ]},
    {"compound": "CNC1CCC(N(Cc2cccc(-c3ccncc3)c2)C(=O)c2sc3c(F)ccc(F)c3c2Cl)CC1", "note": "(stereo not shown) [Hh-Ag 1.5, 3-chloro-4,7-difluoro-N-(4-(methylamino)cyclohexyl)-N-(3-(pyridin-4-yl)benzyl)benzo[b]thiophene-2-carboxamide]", "values": [
      {"measurement": "Sox2/Nestin double-positive cells", "setting": "tdMEFs", "value": 3.68, "unit": "%"},
      {"measurement": "reprogramming efficiency when the component is removed from the M9 cocktail", "setting": "tdMEF [1]", "value": "affected the ciNSLC induction most"}
    ]},
    {"compound": "Cc1c(C(=O)Nc2ccc(N3C[C@@H](C)O[C@@H](C)C3)nc2)cccc1-c1ccc(OC(F)(F)F)cc1", "note": "[LDE-225]", "values": [
      {"measurement": "reduction of reprogramming efficiency", "setting": "tdMEF [2]; 2 μM added to M9 medium", "value": "about 6 fold"}
    ]},
    {"compound": "O=c1cc(N2CCOCC2)oc2c(-c3ccccc3)cccc12", "note": "[LY294002]", "values": [
      {"measurement": "reduction of reprogramming efficiency", "setting": "tdMEF [2]; 5 μM LY294002 added to M9 medium", "value": "~4", "unit": "fold"}
    ]},
    {"compound": "O=C(NOC[C@H](O)CO)c1ccc(F)c(F)c1Nc1ccc(I)cc1F", "note": "[PD0325901]", "values": [
      {"measurement": "reduction of reprogramming efficiency", "setting": "tdMEF [2]; 0.5 μM added to M9 medium", "value": "about 9 fold"}
    ]},
    {"compound": "CN[C@H]1CC[C@H](N(Cc2cccc(-c3ccncc3)c2)C(=O)c2sc3ccccc3c2Cl)CC1", "note": "[SAG, 3-Chloro-N-[trans-4-(methylamino)cyclohexyl]-N-[[3-(4-pyridinyl)phenyl]methyl]benzo[b]thiophene-2-carboxamide]", "values": [
      {"measurement": "Kd", "setting": "[3]", "value": 59, "unit": "nM"},
      {"measurement": "EC50", "setting": "[4]", "value": "~3", "unit": "nM"}
    ]},
    {"compound": "C[S+]([O-])c1ccc(-c2nc(-c3ccc(F)cc3)c(-c3ccncc3)[nH]2)cc1", "note": "(stereo not shown) [SB203580]", "values": [
      {"measurement": "reduction of reprogramming efficiency", "setting": "tdMEF [2]; 5 μM SB203580 added to M9 medium", "value": "~5", "unit": "fold"}
    ]},
    {"compound": "C=CCNc1ncnc2ccc(Br)cc12", "note": "[SMER28, 6-bromo-N-2-propenyl-4-quinazolinamine]", "values": [
      {"measurement": "generation of Sox2/Nestin double-positive cells", "setting": "tdMEFs", "value": "further enhanced"},
      {"measurement": "A53T alpha-synuclein clearance", "setting": "[5]", "value": "enhances"}
    ]},
    {"compound": "Oc1c2ccccc2c2c3c(cccc13)N=N2", "note": "[SP600125]", "values": [
      {"measurement": "reduction of reprogramming efficiency", "setting": "tdMEF [2]; 10 μM added to M9 medium", "value": "~6", "unit": "fold"}
    ]},
    {"compound": "CC1=C(/C=C/C(C)=C/C=C/C(C)=C/C(=O)O)C(C)(C)CCC1", "note": "[retinoic acid]", "values": [
      {"measurement": "Sox2/Nestin double-positive cells", "setting": "tdMEFs", "value": 1.26, "unit": "%"}
    ]},
    {"compound": "CC[N+](CC)(CC)CC", "note": "[tetraethylammonium]", "values": [
      {"measurement": "persistent outward current", "setting": "ciNSLC-derived neurons", "value": "blocked"}
    ]},
    {"compound": "NC1=N[C@H](O)[C@H]2[C@H]3O[C@]4(O)O[C@@H]([C@@H](O)[C@@]2(N1)[C@@H]4O)[C@]3(O)CO", "note": "[tetrodotoxin]", "values": [
      {"measurement": "inactivating inward current", "setting": "ciNSLC-derived neurons", "value": "blocked"}
    ]},
    {"compound": "bFGF: basic fibroblast growth factor (bFGF; also known as FGF2)", "values": [
      {"measurement": "reprogramming efficiency when the component is removed from the M9 cocktail", "setting": "tdMEF [1]", "value": "affected the ciNSLC induction most"}
    ]}
  ]
}
